Earlier results as cited in patent publication US7238683B2, “Fused phenylalanine derivatives as dipeptidyl peptidase-iv inhibitors for the treatment or prevention of diabetes” (Merck & Co., Inc., priority 2003, dated 2007).

Legend:
[1] = tested on: hematopoiesis; conditions: mouse, cyclophosphamide-induced neutropenia
[2] = biological target: T1, DP-IV (Homo sapiens, UniProt P27487)
T1 construct: GRP is rapidly degraded in plasma to GRF[3-44]; from tissue
T1 sequence (P27487 whole entry): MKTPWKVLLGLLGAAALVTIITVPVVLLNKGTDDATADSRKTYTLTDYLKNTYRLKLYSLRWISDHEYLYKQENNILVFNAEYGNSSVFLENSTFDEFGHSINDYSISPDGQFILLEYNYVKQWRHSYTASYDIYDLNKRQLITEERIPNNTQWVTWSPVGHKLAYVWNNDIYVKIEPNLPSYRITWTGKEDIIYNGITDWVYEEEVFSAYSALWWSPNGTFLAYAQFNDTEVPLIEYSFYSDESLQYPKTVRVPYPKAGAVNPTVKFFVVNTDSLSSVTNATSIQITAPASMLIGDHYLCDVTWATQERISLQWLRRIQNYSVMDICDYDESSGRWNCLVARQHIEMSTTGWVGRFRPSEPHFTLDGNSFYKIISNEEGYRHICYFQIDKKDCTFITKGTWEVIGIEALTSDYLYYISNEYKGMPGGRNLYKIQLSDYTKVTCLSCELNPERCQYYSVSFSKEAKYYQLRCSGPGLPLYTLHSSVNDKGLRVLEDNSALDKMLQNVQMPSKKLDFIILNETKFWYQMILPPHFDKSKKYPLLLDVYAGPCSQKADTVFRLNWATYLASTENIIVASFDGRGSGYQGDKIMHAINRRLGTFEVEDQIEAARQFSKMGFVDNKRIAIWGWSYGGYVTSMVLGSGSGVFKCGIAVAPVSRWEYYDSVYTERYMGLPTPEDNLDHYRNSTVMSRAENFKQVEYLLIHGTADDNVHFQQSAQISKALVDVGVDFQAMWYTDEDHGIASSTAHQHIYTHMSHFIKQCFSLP

CC(C)[C@H](N)C(=O)N1CCC[C@H]1B(O)O [Val-Boro-Pro]
effect on hematopoiesis [1]: stimulated hematopoiesis

CC[C@H](C)[C@H](N)C(=O)N1CCC[C@H]1C(=O)N[C@H](C(=O)O)[C@@H](C)CC [diprotin A]
degradation of GRF in plasma to GRF[3-44] [2]: prevented
